{"source": "paper PMC11574108", "about": "“4-Furanylvinylquinoline derivative as a new scaffold for the design of oxidative stress initiator and glucose transporter inhibitor drugs” (Scientific Reports, 2024)", "key": {"CT-DNA": {"test_system": "CT-DNA", "assay": "Intercalation, spectrophotometric study on CT-DNA", "assay_type": "binding, calf", "details": "18 µM CT-DNA, 1.5 h, 37 °C, absorption spectra", "protocol": "Lyophilized calf-thymus DNA (CT-DNA; Sigma-Aldrich) was dissolved in 10 mM Tris-HCl (pH 7.9), mixed gently, and kept overnight at 4 °C. The purity of the CT-DNA solution was determined by measurement of the ratio of UV absorbance at 260 and 280 nm. […] The tested compound was dissolved in DMSO to give a concentration of 8.35 mM. This stock solution was used for preparing new solutions (25, 12.5, 6, and 3 µM) in 1 mL of 10 mM Tris-HCl (pH 7.9). Next, 18 µM CT-DNA was added to the prepared solutions, and the samples were incubated for 1.5 h at 37 °C with occasional vortexing. The measurements of the absorption spectra were performed using a Hitachi U-2900 spectrophotometer in the range of 200–500 nm. The obtained data were analysed using GraphPad Prism v.8.0 (USA).\nTo determine whether and to what extent the compound interacts with DNA, we also performed a spectrophotometric study on CT-DNA. […] (Fig. S2). Nevertheless, under the effect of stress-induced DNA damage in cells, […], which inhibited the CDK1 and cyclin B1 complex. This had the effect of arresting the cell cycle in the G2/M phase in an attempt to repair the DNA damages or induce apoptosis[29],[30]. Abnormal CDK1 activation is often thought to be connected with tumourigenesis. […]"}, "Fas": {"test_system": "Fas", "assay": "Western blot, Fas protein level", "assay_type": "cell-based, human", "protocol": "The cells (500,000) were seeded in 35 mm Petri dishes (Nunc) and incubated in a solution of the tested compound (0.5 µM and 1 µM) for 24 h and 48 h. The cells were then dissociated using trypsin, collected in Eppendorf tubes, and centrifuged at 2,000 rpm. Next, cell pellets were resuspended in complete RIPA buffer containing a Halt Protease Inhibitor Cocktail and Halt Phosphatase Inhibitor Cocktail along with 0.5 M EDTA (all reagents from Thermo Fisher Scientific) and lysed on ice for 20 min. Afterward, the lysates were sonicated and centrifuged at 10,000 rpm for 10 min at 4 °C. The obtained supernatants were collected for further analysis. The protein concentration was determined using a Micro BCA™ Protein Assay Kit (Thermo Fisher Scientific) according to the manufacturer’s procedure. Equal amounts of proteins (16 µg) were electrophoresed on SDS-Page gels and transferred onto nitrocellulose membranes. Novex Sharp Pre-Stained Protein Standard (Thermo Fisher Scientific) was used as a colored molecular weight marker. The membranes were blocked in 5% non-fat milk prepared in TPBS (PBS supplemented by 0.1% Tween-20) for 1 h. After blocking, the membranes were cut, and then incubated with specific primary monoclonal antibodies (all purchased from Cell Signaling) overnight at 4 °C. […]"}, "GLUT-1": {"test_system": "GLUT-1", "assay": "Western blot, GLUT-1 protein level", "assay_type": "cell-based, human", "protocol": "The cells (500,000) were seeded in 35 mm Petri dishes (Nunc) and incubated in a solution of the tested compound (0.5 µM and 1 µM) for 24 h and 48 h. The cells were then dissociated using trypsin, collected in Eppendorf tubes, and centrifuged at 2,000 rpm. Next, cell pellets were resuspended in complete RIPA buffer containing a Halt Protease Inhibitor Cocktail and Halt Phosphatase Inhibitor Cocktail along with 0.5 M EDTA (all reagents from Thermo Fisher Scientific) and lysed on ice for 20 min. Afterward, the lysates were sonicated and centrifuged at 10,000 rpm for 10 min at 4 °C. The obtained supernatants were collected for further analysis. The protein concentration was determined using a Micro BCA™ Protein Assay Kit (Thermo Fisher Scientific) according to the manufacturer’s procedure. Equal amounts of proteins (16 µg) were electrophoresed on SDS-Page gels and transferred onto nitrocellulose membranes. Novex Sharp Pre-Stained Protein Standard (Thermo Fisher Scientific) was used as a colored molecular weight marker. The membranes were blocked in 5% non-fat milk prepared in TPBS (PBS supplemented by 0.1% Tween-20) for 1 h. After blocking, the membranes were cut, and then incubated with specific primary monoclonal antibodies (all purchased from Cell Signaling) overnight at 4 °C. The antibodies for the target proteins (CDK1 Mouse mAb #9116, p53 Mouse mAb #2524, FAS Mouse mAb #8023, GLUT-1 Rabbit mAb #12939, HO-1 Rabbit mAb #5853, p21^Waf1/Cip1 Rabbit mAb #2947, PARP #9542) were diluted 1:1000, while the antibodies for the reference proteins (GAPDH Rabbit mAb #2118, β-actin Mouse mAb #3700, and vinculin Rabbit mAb #13901) were diluted 1:2000. The following day, the membranes were washed in TPBS and incubated with horseradish peroxidase (HRP)-conjugated secondary antibodies (Anti-rabbit IgG, HRP-linked Antibody #7074 or Anti-mouse IgG, HRP-linked Antibody #7076) for 1 h at room temperature. The membranes were then washed in TPBS and incubated with a SuperSignal™ West Pico Chemiluminescent Substrate (Thermo Fisher Scientific). Finally, the membranes were visualized using a ChemiDoc™ XRS + System (Bio-Rad). The experiments were carried out four to five times. The densitometric analysis was performed using ImageJ software (Wayne Rasband, National Institutes of Health, USA).\nWe, therefore, decided to test the effect of the tested compound on the level of the main glucose transporter, GLUT-1. […] The validity of the described conclusions was confirmed by the results that were obtained for doxorubicin. in which p53 activation occurred at both tested time points with a concomitant decrease in the GLUT-1 levels. […] The results that were obtained from the measurements of the expression of this protein were so interesting, and at the same time, inconclusive that we additionally decided to determine the effect of the tested derivative 13 on the expression of the genes encoding selected glucose transporters."}}, "data": [{"smiles": "O=[N+]([O-])c1ccc(/C=C/c2ccnc3ccccc23)o1", "note": "[Compound 13]", "values": [{"measurement": "hypochromism", "setting": "CT-DNA", "value": 10.97, "unit": "%"}, {"measurement": "Fas protein level vs control", "setting": "Fas; HCT 116 p53+/+, 24-h", "value": "more than three-fold increase"}, {"measurement": "Fas protein expression vs untreated cells", "setting": "Fas; HCT 116 p53-/-, 48-h", "value": "four times higher"}, {"measurement": "GLUT-1 protein level vs control", "setting": "GLUT-1; HCT 116 p53+/+, 24-h incubation", "value": "decrease"}, {"measurement": "GLUT-1 protein level vs control", "setting": "GLUT-1; HCT 116 p53+/+, 48-h", "value": "rapid activation"}, {"measurement": "GLUT-1 protein level vs control", "setting": "GLUT-1; HCT 116 p53-/-", "value": "decrease"}, {"measurement": "GLUT-1 protein level vs untreated cells", "setting": "GLUT-1; U-251", "value": "not detectable"}]}]}
